Laboratory results taken from patent US4401812A, “Anthracycline antibiotics” (Hoffmann-La Roche Inc., priority 1980, dated 1983).
In brackets after ≈: the same amount, converted by molar mass. Where two headings read alike, the source gives them in different places.

How the values were obtained:
[1] = tested on: Staphylococcus aureus 209P IAM-1011; test: in vitro MIC, agar streak method; assay type: cell-based; conditions: Heart infusion agar
[2] = in vivo; conditions: mouse, ip, mice, single i.p. injection, judged 72 hours after, read-out: acute intraperitoneal LD50
Procedure: The acute intraperitoneal LD50 in mice judged 72 hours after a single injection of the antibiotics is about 90 mg/kg for auramycin C, auramycin D, sulfurmycin C and sulfurmycin D, 40~80 mg/kg for auramycin G and sulfurmycin G and 20~40 mg/kg for auramycin E and sulfurmycin E.

[3] = tested on: P388 leukaemia; test: Antitumor effect against P388 leukaemia in CDF1 mice; assay type: in vivo; conditions: Mus musculus, ip, days 1, 5 and 9, 1×10^6 P388 cells i.p., CDF1 mice, read-out: Mean survival (T/C, %); for response vs control in vivo at 1.5 mg/kg: 1.5 mg/kg/day i.p.; for response vs control in vivo at 3 mg/kg: 3.0 mg/kg/day i.p.; for response vs control in vivo at 6 mg/kg: 6.0 mg/kg/day i.p.; for response vs control in vivo at 12 mg/kg: 12.0 mg/kg/day i.p.; for response vs control in vivo at 1.88 mg/kg: 1.88 mg/kg/day i.p.; for response vs control in vivo at 3.75 mg/kg: 3.75 mg/kg/day i.p.; for response vs control in vivo at 7.5 mg/kg: 7.5 mg/kg/day i.p.; for response vs control in vivo at 15 mg/kg: 15.0 mg/kg/day i.p.
Procedure: The anthracycline glycosides provided by the present invention were tested against P388 leukaemia in mice. When CDF1 mice are inoculated with 1×10^6 cells of P388 intraperitoneally and each of the antibiotics is administered intraperitoneally on days 1, 5 and 9, the survival time of the treated mice is prolonged as shown in Table 5 hereinafter.

[4] = tested on: Sarcina lutea IAM1009; test: in vitro MIC, agar streak method; assay type: cell-based; conditions: Heart infusion agar
[5] = tested on: Staphylococcus epidermidis IFO-12993; test: in vitro MIC, agar streak method; assay type: cell-based; conditions: Heart infusion agar
From the text: (§1) | ^(1) Heart infusion agar

[6] = tested on: Micrococcus flavus ATCC-10240; test: in vitro MIC, agar streak method; assay type: cell-based; conditions: Heart infusion agar
From the text: as §1

[7] = tested on: Escherichia coli NIHJ IFO-12734; test: in vitro MIC, agar streak method; assay type: cell-based; conditions: Escherichia coli NIHJ IFO-12734, Heart infusion agar
From the text: as §1

[8] = tested on: Bacillus subtilis IAM-1027; test: in vitro MIC, agar streak method; assay type: cell-based; conditions: Bacillus subtilis IAM-1027, Heart infusion agar
From the text: as §1

[9] = tested on: Bacillus cereus Rol79B; test: in vitro MIC, agar streak method; assay type: cell-based; conditions: Heart infusion agar
From the text: as §1

[10] = tested on: Escherichia coli K-12 IAM-1264; test: in vitro MIC, agar streak method; assay type: cell-based; conditions: Escherichia coli K-12 IAM-1264, Heart infusion agar
From the text: as §1

[11] = tested on: Candida albicans ATCC-10231; test: in vitro MIC, agar streak method; assay type: cell-based; conditions: Candida albicans ATCC-10231, Sabouraud dextrose agar
From the text: (§2) | ^(2) Sabouraud dextrose agar

[12] = tested on: Candida tropicalis ATCC-13803; test: in vitro MIC, agar streak method; assay type: cell-based; conditions: Candida tropicalis ATCC-13803, Sabouraud dextrose agar
From the text: as §2

[13] = tested on: Pseudomonas aeruginosa IFO-12689; test: in vitro MIC, agar streak method; assay type: cell-based; conditions: IFO12689, Heart infusion agar
From the text: as §1

[14] = tested on: Staphylococcus aureus 209P Stf; test: in vitro MIC, agar streak method; assay type: cell-based; conditions: Heart infusion agar
From the text: as §1

[15] = tested on: Mycobacterium smegmatis IFO-13167; test: in vitro MIC, agar streak method; assay type: cell-based; conditions: Mycolicibacterium smegmatis, IFO13167; Mycobacterium smegmatis IFO-13167; Heart infusion agar; read-out: MIC
From the text: as §1

[16] = Staphylococcus aureus, read-out: MIC
[17] = Micrococcus luteus, IAM1009, Sarcina lutea IAM-1009, read-out: MIC
[18] = Micrococcus flavus, ATCC10240, Micrococcus flavus ATCC-10240, read-out: MIC
[19] = Staphylococcus epidermidis IFO-12993

| Structure (SMILES) | MIC [1, 16] | LD50 at 72 h [2] | response vs control in vivo at 1.5 mg/kg [3] | response vs control in vivo at 3 mg/kg [3] | response vs control in vivo at 6 mg/kg [3] | response vs control in vivo at 12 mg/kg [3] | MIC [4, 17] | MIC [6, 18] | MIC ([7]; IFO12734, read-out: MIC) | MIC ([8]; IAM1027, read-out: MIC) | MIC ([9]; read-out: MIC) | MIC ([10]; IAM1264, read-out: MIC) | MIC ([11]; ATCC10231, read-out: MIC) | MIC ([12]; ATCC13803, read-out: MIC) | response vs control in vivo at 1.88 mg/kg [3] | response vs control in vivo at 3.75 mg/kg [3] | response vs control in vivo at 7.5 mg/kg [3] | response vs control in vivo at 15 mg/kg [3] | MIC [13] | MIC [14] | further results |
| --- | --- | --- | --- | --- | --- | --- | --- | --- | --- | --- | --- | --- | --- | --- | --- | --- | --- | --- | --- | --- | --- |
| COC(=O)C1c2cc3c(c(O)c2C(OC2CC(N(C)C)C(OC4CCC(OC5CCC(O)C(C)O5)C(C)O4)C(C)O2)CC1(C)O)C(=O)c1c(O)cccc1C3=O (stereo not drawn) [Auramycin G] | 6.25 µg/mL (≈ 7.97 µM) | 40 to 80 mg/kg | 102% | 109% | 105% | 119% | 6.25 µg/mL (≈ 7.97 µM) | 6.25 µg/mL (≈ 7.97 µM) | > 50 µg/mL | 12.5 µg/mL (≈ 15.9 µM) | 0.78 µg/mL (≈ 0.995 µM) | > 50 µg/mL | > 50 µg/mL | > 50 µg/mL | – | – | – | – | – | – | MIC ([5]; Staphylococcus epidermidis, IFO12993, Staphylococcus epidermidis IFO-12993, read-out: MIC): 6.25 µg/mL (≈ 7.97 µM) |
| COC(=O)C1c2cc3c(c(O)c2C(OC2CC(N(C)C)C(OC4CC(O)C(O)C(C)O4)C(C)O2)CC1(O)CC(C)=O)C(=O)c1c(O)cccc1C3=O (stereo not drawn) [Sulfurmycin C] | – | ~90 mg/kg | – | – | – | – | 6.25 µg/mL (≈ 8.59 µM) | – | > 50 µg/mL | 12.5 µg/mL (≈ 17.2 µM) | – | > 50 µg/mL | > 50 µg/mL | > 50 µg/mL | 131% | 141% | 138% | 141% | > 50 µg/mL | 6.25 µg/mL (≈ 8.59 µM) | MIC ([1]; read-out: MIC): 6.25 µg/mL (≈ 8.59 µM); MIC ([6]; ATCC10240, Micrococcus flavus ATCC-10240, read-out: MIC): 6.25 µg/mL (≈ 8.59 µM); MIC [15]: 3.13 µg/mL (≈ 4.3 µM) |
| COC(=O)C1c2cc3c(c(O)c2C(OC2CC(N(C)C)C(OC4CC(O)C(OC5CCC(O)C(C)O5)C(C)O4)C(C)O2)CC1(O)CC(C)=O)C(=O)c1c(O)cccc1C3=O (stereo not drawn) [Sulfurmycin F] | – | – | – | – | – | – | – | – | – | – | – | – | – | – | – | – | – | – | – | – | MIC [1]: 3.12 µg/mL (≈ 3.71 µM); MIC ([4]; Sarcina lutea IAM-1009): 1.56 µg/mL (≈ 1.85 µM); MIC [5, 19]: 12.5 µg/mL (≈ 14.8 µM); MIC ([6]; Micrococcus flavus ATCC-10240): 1.56 µg/mL (≈ 1.85 µM); MIC [7]: > 50 µg/mL; MIC [8]: 3.12 µg/mL (≈ 3.71 µM); MIC [9]: 0.39 µg/mL (≈ 0.463 µM); MIC [10]: > 50 µg/mL; MIC [11]: > 50 µg/mL; MIC [12]: > 50 µg/mL |
| COC(=O)C1c2cc3c(c(O)c2C(OC2CC(N(C)C)C(OC4CC(O)C(OC5CCC(O)C(C)O5)C(C)O4)C(C)O2)CC1(O)CC(C)=O)C(=O)c1c(O)cccc1C3=O (stereo not drawn) [Sulfurmycin E] | 3.12 µg/mL (≈ 3.71 µM) | 20 to 40 mg/kg | 133% | 140% | 150% | 165% | 3.12 µg/mL (≈ 3.71 µM) | 3.12 µg/mL (≈ 3.71 µM) | > 50 µg/mL | 3.12 µg/mL (≈ 3.71 µM) | 0.39 µg/mL (≈ 0.463 µM) | > 50 µg/mL | > 50 µg/mL | > 50 µg/mL | – | – | – | – | – | – | MIC [5, 19]: 1.56 µg/mL (≈ 1.85 µM) |
| COC(=O)C1c2cc3c(c(O)c2C(OC2CC(N(C)C)C(O)C(C)O2)CC1(O)CC(C)=O)C(=O)c1c(O)cccc1C3=O (stereo not drawn) [Sulfurmycin D] | 25 µg/mL (≈ 41.8 µM) | ~90 mg/kg | – | – | – | – | 25 µg/mL (≈ 41.8 µM) | 25 µg/mL (≈ 41.8 µM) | > 50 µg/mL | 12.5 µg/mL (≈ 20.9 µM) | – | > 50 µg/mL | > 50 µg/mL | > 50 µg/mL | 106% | 135% | 128% | 152% | > 50 µg/mL | 25 µg/mL (≈ 41.8 µM) | MIC [15]: 6.25 µg/mL (≈ 10.5 µM) |
